Laboratory results published in US10626125B2, “1,1,1-trifluoro-3-hydroxypropan-2-yl carbamate derivatives as MAGL inhibitors” (PFIZER INC., priority 2017, dated 2020).
Where two headings read alike, the source gives them in different places.

Target: T1, human recombinant Monoacylglycerol Lipase (Homo sapiens, UniProt Q99685)
T1 sequence (Q99685 1-303): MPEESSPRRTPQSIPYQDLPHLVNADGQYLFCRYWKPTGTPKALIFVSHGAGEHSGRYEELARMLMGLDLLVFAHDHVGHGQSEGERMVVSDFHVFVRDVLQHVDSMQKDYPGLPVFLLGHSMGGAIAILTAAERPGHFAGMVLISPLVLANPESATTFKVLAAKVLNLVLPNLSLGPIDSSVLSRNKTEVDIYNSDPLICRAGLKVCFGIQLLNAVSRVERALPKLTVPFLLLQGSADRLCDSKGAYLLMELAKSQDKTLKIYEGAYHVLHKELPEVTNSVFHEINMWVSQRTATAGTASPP
Assay: MAGL enzymatic assay (IC50; 7-HCA substrate added at T=0 min or T=30 min)
Type: biochemical

[1] = MAGL (T=30 min) IC50, 30 minute incubation of compound with MAGL enzyme before addition of 7-HCA substrate
[2] = read-out: MAGL (T=30 min) IC50, 30 minute incubation of compound with MAGL enzyme before addition of 7-HCA substrate
[3] = MAGL (T = 30 min) IC50, substrate 7-HCA added after 30 minute incubation (T=30 min), geometric mean of 2-5 determinations unless otherwise indicated
[4] = substrate 7-HCA added immediately (T=0 min), geometric mean of 2-5 determinations unless otherwise indicated, read-out: MAGL (T = 0 min) IC50

| IC50 [2] | Structure (SMILES) | other results |
| --- | --- | --- |
| – | N#Cc1ccc([C@@H]2COC3(CCN(C(=O)O[C@H](CO)C(F)(F)F)CC3)C2)cc1F [diastereomer of Example 27, (2R)-1,1,1-trifluoro-3-hydroxypropan-2-yl (3R)-3-(4-cyano-3-fluorophenyl)-1-oxa-8-azaspiro[4.5]decane-8-carboxylate] | IC50 [1]: 17 nM |
| 2 nM | O=C(OC(CO)C(F)(F)F)N1CCC2(CC1)CC(c1ccc(F)cc1F)CO2 (single isomer, unassigned) [diastereomer of Example 33] | – |
| – | N#Cc1ccc(C2COC3(CCN(C(=O)O[C@H](CO)C(F)(F)F)CC3)C2)c(F)c1 (single isomer, unassigned) [diastereomer of Example 72] | IC50 [1]: 12 nM |
| 14 nM | O=C(OC(CO)C(F)(F)F)N1CCC2(CCC(n3cc(F)cn3)CO2)CC1 (single isomer, unassigned) [diastereomer of Example 70] | – |
| 3 nM | O=C(OC(CO)C(F)(F)F)N1CCC2(CCC(n3cc(C(F)(F)F)cn3)CO2)CC1 (single isomer, unassigned) [diastereomer of Example 69] | – |
| 14 nM | N#Cc1cc(C2COC3(CCN(C(=O)OC(CO)C(F)(F)F)CC3)C2)ccc1F (single isomer, unassigned) [diastereomer of Example 28] | – |
| – | O=C(O[C@H](CO)C(F)(F)F)N1CCC2(CC1)CC(n1cc(C(F)F)cn1)CO2 (single isomer, unassigned) [diastereomer of Example 20] | IC50 [1]: 65 nM |
| 19 nM | O=C(OC(CO)C(F)(F)F)N1CCC2(CC1)CC(c1cc(C(F)F)ccn1)CO2 (single isomer, unassigned) [diastereomer of Example 35] | – |
| – | O=C(O[C@H](CO)C(F)(F)F)N1CCC2(CC1)C[C@@H](n1cc(F)cn1)CO2 [Example 11, (2R)-1,1,1-Trifluoro-3-hydroxypropan-2-yl (3R)-3-(4-fluoro-1H-pyrazol-1-yl)-1-oxa-8-azaspiro[4.5]decane-8-carboxylate] | IC50 [3]: 15 nM; IC50 [4]: 211 nM |
| 49 nM | O=C(O[C@H](CO)C(F)(F)F)N1CCC2(CC1)CC(n1ncc3ccccc31)CO2 (single isomer, unassigned) [diastereomer of Example 62] | – |
| 3 nM | O=C(OC(CO)C(F)(F)F)N1CCC2(CCC(n3cc(C(F)F)cn3)CO2)CC1 (single isomer, unassigned) [diastereomer of Example 75] | – |
| – | N#Cc1cccc(C2COC3(CCN(C(=O)O[C@H](CO)C(F)(F)F)CC3)C2)c1F (single isomer, unassigned) [diastereomer of Example 71] | IC50 [1]: 8 nM |
| 9 nM | O=C(OC(CO)C(F)(F)F)N1CCC2(CC1)CC(c1ccc(C(F)(F)F)cn1)CO2 (single isomer, unassigned) [diastereomer of Example 40] | – |
| 336 nM | N#Cc1ccc(C2COC3(CCN(C(=O)OC(CO)C(F)(F)F)CC3)C2)nc1 (single isomer, unassigned) [diastereomer of Example 38] | – |
| 9 nM | O=C(OC(CO)C(F)(F)F)N1CCC2(CC1)CC(n1ccc(C(F)(F)F)n1)CO2 (single isomer, unassigned) [diastereomer of Example 53] | – |
| – | CN(C1CCOC2(CCN(C(=O)O[C@H](CO)C(F)(F)F)CC2)C1)S(=O)(=O)CC1CC1 (single isomer, unassigned) [Example 50] | IC50 [3]: 67 nM; IC50 [4]: 752 nM |
| – | O=C(O[C@H](CO)C(F)(F)F)N1CCC2(CC1)CC(Oc1ccc(C(F)F)nc1)C2 [Example 19, (2R)-1,1,1-Trifluoro-3-hydroxypropan-2-yl 2-{[6-(difluoromethyl)pyridin-3-yl]oxy}-7-azaspiro[3.5]nonane-7-carboxylate] | IC50 [3]: 1 nM; IC50 [4]: 8 nM |
| 4 nM | CC(C)(C)c1ccn(C2COC3(CCN(C(=O)OC(CO)C(F)(F)F)CC3)C2)n1 (single isomer, unassigned) [diastereomer of Example 52] | – |
| 23 nM | O=C(OC(CO)C(F)(F)F)N1CCC2(CC1)CC(n1cc(Cl)cn1)CO2 (single isomer, unassigned) [diastereomer of Example 22] | – |
